Test results as given in patent publication EP2712863B1, “Novel inhibitors of bacterial biofilms and related methods” (Sequoia Sciences, Inc., priority 2012, dated 2014).
≈ marks a conversion by molar mass, not a printed value.

Assays:
E. coli = test: Biofilm growth assay (spreading biofilm on semi-solid agar); assay type: cell-based; settings: Escherichia coli; Table 3; concentration that reduces the area of the spreading biofilm by >= 85%; read-out: E. coli
Description: (§1) "Biofilm Growth Assay" refers to an assay performed on semi-solid agar surface where the bacteria collectively move out from an inoculation point. To those skilled in the art, the act of bacteria collectively moving out from an inoculation point on a semi-solid surface may be referred to as swarming or a spreading biofilm. (Anderson, et al Microbiology, 2003, 149, 37-46; Daniels, et al. FEMS Microbiology Reviews, 2004, 28, 261-289). The procedure to perform this assay is described in detail in the Examples. This type of surface motility by bacteria has been reported in the literature by those skilled in the art.
(§2) The biofilm growth assay was carried out to measure swarming or biofilm spreading on semi-solid agar media in round plates (for example, 100 × 15 mm), also referred to as Petri dishes. For E. coli, the plates contained LB medium with 0.6% agar and 0.5% glucose. P. aeruginosa plates were made with M8 agar supplemented with 0.2% glucose, 100 µM CaCl2, 1 mM MgSO4, and 0.5% Casamino acids. The agar plates of this assay consisted of 0.4% to 0.7% agar (Bacto or Noble agar), although other media may also be used as described in the literature and known to those skilled in the art. Test compounds at the desired concentration were added to the cooled, autoclaved media. Portions of the media were then poured into the plates (20 mL/plate), and the plates allowed to dry at room temperature for approximately 3 to 4 hours. Alternatively, however, plates may be dried in a laminar flow hood for approximately fifteen to twenty minutes. Overnight cultures were grown in a 37°C shaker in LB (E. coli) or TSB (P. aeruginosa). Plates were inoculated by placing 5 µL of the appropriate overnight culture in the centers of the plates. The plates then were incubated overnight at 37°C. The area of the zone of spreading bacteria was then measured and replicates are averaged. Percent inhibition was calculated as 100 × (area without compound - area with compound)/(area without compound). An active compound was considered that which reduces the area of the spreading biofilm compared to negative controls by greater than or equal to 85%. The values shown in Table 1 are the concentrations of compounds (µg/ml) tested in the biofilm growth assay that reduce the area of the spreading biofilm compared to negative controls by greater than or equal to 85% unless noted differently in Table 1. A > ("greater than" symbol) as used in Table 1 is well understood to those skilled in the art as an indication that the listed concentration was not effective at this concentration.
(§3) All of the compounds shown in Tables 2, 3, 4, and 5, below, were prepared semi-synthetically from oleanolic acid, except for Compounds 2 and 3. Compound 2 was prepared from ursolic acid. Compound 3 was prepared from hederagenin, but could also be prepared from an oleanolic acid analog with a hydroxyl at C23 or C24. These compounds were tested in the spreading biofilm assay according to the methods detailed in Example I, above. The values shown in Tables 2, 3, 4, and 5 are the concentrations of compounds tested in the biofilm growth assay that reduce the area of the spreading biofilm compared to negative controls by greater than or equal to 85%. Table 2. Compound 1 and its Analogs and their inhibitory concentrations in the biofilm growth assay as detailed in Example I, above

P. aeruginosa = test: as above; assay type: cell-based; settings: Pseudomonas aeruginosa; Table 3; concentration that reduces the area of the spreading biofilm by >= 85%; read-out: P. aeruginosa
Description: as §1, §2, §3

SMILES | IC85 (E. coli) | IC85 (P. aeruginosa)
CC1(C)CC[C@]2(C(=O)O)CC[C@]3(C)C(=C(c4ccncc4)CC4[C@@]5(C)Cc6c(n[nH]c6N)C(C)(C)[C@@H]5CC[C@]43C)[C@@H]2C1 (stereo partly drawn) [Compound 29, (4aS,6aS,6bR,8aR,13aR,15bS)-12-Amino-2,2,6a,6b,9,9,13a-heptamethyl-15-(pyridin-4-yl)-2,3,4,4a,5,6,6a,6b,7,8,8a,9,11,13,13a,13b,14,15b-octadecahydro-1H-chryseno[1,2-f]indazole-4a-carboxylic acid] | 1 µg/mL (≈ 1.75 µM) | 1 µg/mL (≈ 1.75 µM)
CC1(C)CC[C@]2(C(=O)O)CC[C@]3(C)C(=C(c4cncnc4)CC4[C@@]5(C)Cc6c(n[nH]c6N)C(C)(C)[C@@H]5CC[C@]43C)[C@@H]2C1 (stereo partly drawn) [Compound 30, (4aS,6aS,6bR,8aR,13aR,15bS)-12-Amino-2,2,6a,6b,9,9,13a-heptamethyl-15-(pyrimidin-5-yl)-2,3,4,4a,5,6,6a,6b,7,8,8a,9,11,13,13a,13b,14,15b-octadecahydro-1H-chryseno[1,2-f]indazole-4a-carboxylic acid] | 1 µg/mL (≈ 1.75 µM) | 2 µg/mL (≈ 3.5 µM)
CC1(C)CC[C@]2(C(=O)O)CC[C@]3(C)C(=C(c4ccc(N)c(F)c4)CC4[C@@]5(C)Cc6c(n[nH]c6N)C(C)(C)C5CC[C@]43C)C2C1 (stereo partly drawn) [Compound 31, (4aS,6aS,6bR,13aR)-12-Amino-15-(4-amino-3-fluorophenyl)-2,2,6a,6b,9,9,13a-heptamethyl-2,3,4,4a,5,6,6a,6b,7,8,8a,9,11,13,13a,13b,14,15b-octadecahydro-1H-chryseno[1,2-f]indazole-4a-carboxylic acid] | 1 µg/mL (≈ 1.66 µM) | 0.5 µg/mL (≈ 0.829 µM)
CC1(C)CC[C@]2(C(=O)O)CC[C@]3(C)C(=C(c4ccoc4CN4CCOCC4)CC4[C@@]5(C)Cc6c(n[nH]c6N)C(C)(C)[C@@H]5CC[C@]43C)[C@@H]2C1 (stereo partly drawn) [Compound 32, (4aS,6aS,6bR,8aR,13aR,15bS)-12-Amino-2,2,6a,6b,9,9,13a-heptamethyl-15-(2-(morpholinomethyl)furan-3-yl)-2,3,4,4a,5,6,6a,6b,7,8,8a,9,11,13,13a,13b,14,15b-octadecahydro-1H-chryseno[1,2-f]indazole-4a-carboxylic acid] | 1 µg/mL (≈ 1.52 µM) | 0.5 µg/mL (≈ 0.759 µM)
CC1(C)CC[C@]2(C(=O)O)CC[C@]3(C)C(=C(c4c[nH]cc4CN4CCOCC4)CC4[C@@]5(C)Cc6c(n[nH]c6N)C(C)(C)[C@@H]5CC[C@]43C)[C@@H]2C1 (stereo partly drawn) [Compound 33, (4aS,6aS,6bR,8aR,13aR,15bS)-12-Amino-2,2,6a,6b,9,9,13a-heptamethyl-15-(4-(morpholinomethyl)-1H-pyrrol-3-yl)-2,3,4,4a,5,6,6a,6b,7,8,8a,9,11,13,13a,13b,14,15b-octadecahydro-1H-chryseno[1,2-f]indazole-4a-carboxylic acid] | 4 µg/mL (≈ 6.08 µM) | 2 µg/mL (≈ 3.04 µM)
CC1(C)CC[C@]2(C(=O)O)CC[C@]3(C)C(=C(c4ccsc4CN4CCOCC4)CC4[C@@]5(C)Cc6c(n[nH]c6N)C(C)(C)C5CC[C@]43C)C2C1 (stereo partly drawn) [Compound 34, (4aS,6aS,6bR,13aR)-12-Amino-2,2,6a,6b,9,9,13a-heptamethyl-15-(2-(morpholinomethyl)thiophen-3-yl)-2,3,4,4a,5,6,6a,6b,7,8,8a,9,11,13,13a,13b,14,15b-octadecahydro-1H-chryseno[1,2-f]indazole-4a-carboxylic acid] | 1 µg/mL (≈ 1.48 µM) | 1 µg/mL (≈ 1.48 µM)
CC1(C)CC[C@]2(C(=O)O)CC[C@]3(C)C(=C(c4ccoc4CN4CCNCC4)CC4[C@@]5(C)Cc6c(n[nH]c6N)C(C)(C)[C@@H]5CC[C@]43C)[C@@H]2C1 (stereo partly drawn) [Compound 35, (4aS,6aS,6bR,8aR,13aR,15bS)-12-Amino-2,2,6a,6b,9,9,13a-heptamethyl-15-(2-(piperazin-1-ylmethyl)furan-3-yl)-2,3,4,4a,5,6,6a,6b,7,8,8a,9,11,13,13a,13b,14,15b-octadecahydro-1H-chryseno[1,2-f]indazole-4a-carboxylic acid] | 1 µg/mL (≈ 1.52 µM) | > 1 µg/mL
CN1CCN(Cc2occc2C2=C3[C@@H]4CC(C)(C)CC[C@]4(C(=O)O)CC[C@@]3(C)[C@]3(C)CC[C@H]4C(C)(C)c5n[nH]c(N)c5C[C@]4(C)C3C2)CC1 (stereo partly drawn) [Compound 36, (4aS,6aS,6bR,8aR,13aR,15bS)-12-Amino-2,2,6a,6b,9,9,13a-heptamethyl-15-(2-((4-methylpiperazin-1-yl)methyl)furan-3-yl)-2,3,4,4a,5,6,6a,6b,7,8,8a,9,11,13,13a,13b,14,15b-octadecahydro-1H-chryseno[1,2-f]indazole-4a-carboxylic acid] | 2 µg/mL (≈ 2.98 µM) | > 1 µg/mL
CC1(C)CC[C@]2(C(=O)O)CC[C@]3(C)C(=C(c4ccoc4CN4CCCC4)CC4[C@@]5(C)Cc6c(n[nH]c6N)C(C)(C)C5CC[C@]43C)C2C1 (stereo partly drawn) [Compound 37, (4aS,6aS,6bR,13aR)-12-Amino-2,2,6a,6b,9,9,13a-heptamethyl-15-(2-(pyrrolidin-1-ylmethyl)furan-3-yl)-2,3,4,4a,5,6,6a,6b,7,8,8a,9,11,13,13a,13b,14,15b-octadecahydro-1H-chryseno[1,2-f]indazole-4a-carboxylic acid] | 1 µg/mL (≈ 1.56 µM) | > 1 µg/mL
CC1(C)CC[C@]2(C(=O)O)CC[C@]3(C)C(=C(c4coc(CN5CCCC5)c4)CC4[C@@]5(C)Cc6c(n[nH]c6N)C(C)(C)C5CC[C@]43C)C2C1 (stereo partly drawn) [Compound 38, (4aS,6aS,6bR,13aR)-12-Amino-2,2,6a,6b,9,9,13a-heptamethyl-15-(5-(pyrrolidin-1-ylmethyl)furan-3-yl)-2,3,4,4a,5,6,6a,6b,7,8,8a,9,11,13,13a,13b,14,15b-octadecahydro-1H-chryseno[1,2-f]indazole-4a-carboxylic acid] | 2 µg/mL (≈ 3.11 µM) | 1 µg/mL (≈ 1.56 µM)
CC1(C)CC[C@]2(C(=O)O)CC[C@]3(C)C(=C(c4coc(CN5CCNCC5)c4)CC4[C@@]5(C)Cc6c(n[nH]c6N)C(C)(C)C5CC[C@]43C)C2C1 (stereo partly drawn) [Compound 39, (4aS,6aS,6bR,13aR)-12-Amino-2,2,6a,6b,9,9,13a-heptamethyl-15-(5-(piperazin-1-ylmethyl)furan-3-yl)-2,3,4,4a,5,6,6a,6b,7,8,8a,9,11,13,13a,13b,14,15b-octadecahydro-1H-chryseno[1,2-f]indazole-4a-carboxylic acid] | 2 µg/mL (≈ 3.04 µM) | 1 µg/mL (≈ 1.52 µM)
CC1(C)CC[C@]2(C(=O)O)CC[C@]3(C)C(=C(c4coc(CN5CCOCC5)c4)CC4[C@@]5(C)Cc6c(n[nH]c6N)C(C)(C)[C@@H]5CC[C@]43C)[C@@H]2C1 (stereo partly drawn) [Compound 40, (4aS,6aS,6bR,8aR,13aR,15bS)-12-Amino-2,2,6a,6b,9,9,13a-heptamethyl-15-(5-(morpholinomethyl)furan-3-yl)-2,3,4,4a,5,6,6a,6b,7,8,8a,9,11,13,13a,13b,14,15b-octadecahydro-1H-chryseno[1,2-f]indazole-4a-carboxylic acid] | 2 µg/mL (≈ 3.04 µM) | 0.5 µg/mL (≈ 0.759 µM)
CC1(C)CC[C@]2(C(=O)O)CC[C@]3(C)C(=C(c4ccc(N)nc4)CC4[C@@]5(C)Cc6c(n[nH]c6N)C(C)(C)[C@@H]5CC[C@]43C)[C@@H]2C1 (stereo partly drawn) [Compound 41, (4aS,6aS,6bR,8aR,13aR,15bS)-12-Amino-15-(6-aminopyridin-3-yl)-2,2,6a,6b,9,9,13a-heptamethyl-2,3,4,4a,5,6,6a,6b,7,8,8a,9,11,13,13a,13b,14,15b-octadecahydro-1H-chryseno[1,2-f]indazole-4a-carboxylic acid] | 2 µg/mL (≈ 3.41 µM) | 1 µg/mL (≈ 1.71 µM)
COc1ccc(C2=C3[C@@H]4CC(C)(C)CC[C@]4(C(=O)O)CC[C@@]3(C)[C@]3(C)CC[C@H]4C(C)(C)c5n[nH]c(N)c5C[C@]4(C)C3C2)cn1 (stereo partly drawn) [Compound 42, (4aS,6aS,6bR,8aR,13aR,15bS)-12-Amino-15-(6-methoxypyridin-3-yl)-2,2,6a,6b,9,9,13a-heptamethyl-2,3,4,4a,5,6,6a,6b,7,8,8a,9,11,13,13a,13b,14,15b-octadecahydro-1H-chryseno[1,2-f]indazole-4a-carboxylic acid] | 1 µg/mL (≈ 1.66 µM) | 0.25 µg/mL (≈ 0.416 µM)
